{"source": "patent US20200368223A1", "about": "“METHODS FOR INHIBITING PHOSPHATE TRANSPORT” (Ardelyx, Inc., priority 2019, published 2020)", "key": {"[1]": {"experiment": "In vitro dissolution of CPD002 formulations", "format": "physicochemical", "settings": "CPD002 formulations at high pH"}, "[2]": {"system": "uremic rat model of CKD featuring vascular calcification", "experiment": "Rat model of uremia-associated vascular calcification (5/6th nephrectomy, calcitriol, 0.9% P diet)", "format": "in vivo", "from_the_text": "Chronic kidney disease (CKD) has multiple pathogenic mechanisms, and advanced CKD is often characterized by disordered mineral metabolism (e.g., hyperphosphatemia, hypercalcemia) and vascular calcification."}, "[3]": {"settings": "haemodialysis patients; cited from earlier work"}, "rats": {"system": "rats", "experiment": "Urinary excretion of phosphate and calcium in rats", "format": "in vivo, rat", "settings": "16 hours overnight urine", "experimental": "The activity of compound 002 was tested for its effects on phosphorus and calcium levels in the urine of rats. Rats were dosed according to the schedule in Table E7.\nThe rats were kept for 16 hours overnight (in the dark, the typical feeding period) in individual metabolic cages, and urine was collected the following morning for analysis of phosphate and calcium levels. The study design is shown WO2014169094."}, "[4]": {"system": "adenine-induced uremic rat model", "experiment": "Adenine-induced uremic rat model", "format": "in vivo", "experimental": "The effects of Cpd 002(were tested in an adenine-induced uremic rat model. Rats were fed a diet including 0.75% adenine and 1.2% phosphorus during the nephritis induction phase. The basal diet during the treatment phase was normal chow including 0.3% adenine and 0.6% phosphorus for 2 weeks. The rats were pair-fed the first 5 days (groups 1 and 2 to group 3, 4 days apart), and fed ad libitum afterwards. The treatment groups were as follows: vehicle, n=10; Cpd 002, 2 mg/kg/day drug-in-chow, n=10; and Cpd 002, 5 mg/kg/day drug-in-chow, n=12. Weekly measurements were taken for serum markers and kidney function."}, "Sprague Dawley (SD) rats": {"system": "Sprague Dawley (SD) rats", "experiment": "Combination treatment with tenapanor and sevelamer in rats (urinary and renal phosphorous and sodium, BLISS model)", "procedure": "A total of 48, approximately 8-week-old male Sprague Dawley (SD) rats (Envigo, Livermore, Calif.), weighing approximately 250 g on arrival, were housed 2-per cage in micro-isolator cages for a 48-hr acclimation period prior to being assigned to study groups. Animals were housed in a temperature (65-75° F.) and humidity (35-55%) controlled facility utilizing a reversed 12-hour light/dark cycle (7 AM-7 PM dark cycle). […] Body weights were recorded at study initiation and daily for the remainder of the study. Animals were maintained in accordance with the Guide for the Care and Use of Laboratory Animals (National Research Council, 2011). The study was conducted under a protocol approved by the Institutional Animal Care and Use Committee.\nRats were randomly assigned to one of eight groups (n=6/group) provided with a diet containing varying amounts of sevelamer (0-3% w/w) and were dosed by oral gavage twice daily with vehicle (0.01% Tween80) or tenapanor (0.15 mg/kg) for 11-consecutive days according to the study assignments shown in the following table.\nRats dosed orally with vehicle and provided diet without sevelamer (Group 1) served as the control group. Treatment arms included groups treated with tenapanor alone (0.15 mg/kg, bid), sevelamer alone (0.75, 1,5 or 3% w/w in chow) and the combination of tenapanor (0.15 mg/kg, bid) with each dose level of sevelamer (0.75, 1,5 or 3% w/w in chow). Animals were dosed in their home cages while pair-housed for the first five treatment days. On treatment day 6, all animals were housed individually in metabolic cages for the remainder of the study and continued to be provided ad libitum access to diet containing 0-3% sevelamer w/w and dosed twice daily with vehicle or tenapanor. Following two days acclimation to the metabolic cages, 24-hour food intake, water intake and urinary volume were measured and recorded for the final four treatment days. Urinary sodium and phosphorous concentration was measured by ion chromatography (IC). 24-hour urinary sodium and phosphorous excretion were calculated by multiplying ion concentration by 24-hour urine volume. Urinary ion excretion was also normalized to daily dietary ion intake to account for daily fluctuations in food intake.\nDosing solutions containing tenapanor (Ardelyx, Fremont Calif.) at a concentration of 0.03 mg/mL were made fresh weekly by adding the appropriate weight of tenapanor to 0.1% Tween 80 vehicle. The dose volume was 5 mL/kg for all groups.\nAnimals were dosed twice daily (bid) orally (po), immediately prior to lights out (7 AM) and during the middle of dark cycle (2 PM) with a standard gavage needle (38 mm, 20 G). Animals were removed from the holding or metabolic cages for dosing and then immediately returned to the cage of origin.\nUrine samples were analyzed for sodium and phosphorous content on an ion chromatography system (Thermo Fisher Scientific ICS-3000 or ICS-5000+) coupled with conductivity detectors."}, "[5]": {"system": "dietary salt-induced, partial renal ablation model of CKD", "experiment": "Renal insufficiency with high salt feed in nephrectomized rats", "format": "in vivo, rat", "experimental": "The effects of Cpd 002 were tested in a dietary salt-induced, partial renal ablation model of CKD."}, "[6]": {"settings": "Cpd 002 0.065 mg/g chow vs vehicle diet, listed as Cpd 002"}, "[7]": {"settings": "endpoint day 27, Cpd 002 0.065 mg/g chow vs vehicle diet"}, "[8]": {"settings": "endpoint, Cpd 002 0.065 mg/g chow vs vehicle diet"}, "[9]": {"settings": "early time points, Cpd 002 2 or 5 mg/kg/day drug-in-chow"}, "[10]": {"settings": "week three, at the highest dose"}, "[11]": {"settings": "tenapanor 0.15 mg/kg po bid alone, four day collection period, relative to control group 1"}}, "note": "Entries after “also recorded” stand apart in the source; their conditions may differ.", "data": [{"compound": "CN1Cc2c(Cl)cc(Cl)cc2[C@H](c2cccc(S(=O)(=O)NCCOCCOCCNC(=O)NCCCCNC(=O)NCCOCCOCCNS(=O)(=O)c3cccc([C@@H]4CN(C)Cc5c(Cl)cc(Cl)cc54)c3)c2)C1", "note": "[Tenapanor, tenapanor]", "values": [{"measurement": "in vitro dissolution profile", "setting": "[1]", "result": "slower and/or incomplete dissolution"}, {"measurement": "hypertrophy of the heart (endpoint heart weight)", "setting": "[2]; [6]", "result": "lessened; also recorded: reduce"}, {"measurement": "hypertrophy of the kidney remnant (endpoint kidney remnant weight)", "setting": "[2]; [6]", "result": "lessened; also recorded: reduce"}, {"measurement": "plasma FGF-23", "setting": "[2]; [7]", "result": "reduced"}, {"measurement": "plasma creatinine", "setting": "[2]; [7]", "result": "reduced"}, {"measurement": "plasma phosphorus", "setting": "[2]; endpoint day 27, Cpd 002 0.065 mg/g chow vs vehicle diet, listed as Cpd 002", "result": "reduced; also recorded: anti-hyperphosphatemic effects"}, {"measurement": "calcium in the stomach (soft tissue calcification)", "setting": "[2]; [8]", "result": "reduced"}, {"measurement": "phosphorus in the stomach (soft tissue calcification)", "setting": "[2]; [8]", "result": "reduced"}, {"measurement": "plasma aldosterone levels", "setting": "[2]; [8]", "result": "increase"}, {"measurement": "vascular calcification as measured by aortic mineral content", "setting": "[2]; endpoint, Cpd 002 0.065 mg/g chow vs vehicle diet, listed as Cpd 002", "result": "reduce"}, {"measurement": "moribundity", "setting": "[2]; treatment group vs vehicle", "result": "decreased"}, {"measurement": "mortality outcome", "setting": "[2]; treatment group vs vehicle", "result": "trend toward improved mortality outcome"}, {"measurement": "serum phosphate levels", "setting": "[3]", "result": "significantly lower"}, {"measurement": "urine phosphorus mass relative to the vehicle-only control", "setting": "rats; Cpd 002 0.1-3.0 mg/kg", "result": "reduced"}, {"measurement": "urine phosphorus mass relative to 48 mg/kg Renvela", "setting": "rats; increasing dosages of Cpd 002", "result": "significantly reduced"}, {"measurement": "serum creatinine", "setting": "[4]; [9]", "result": "reduced"}, {"measurement": "serum phosphorus", "setting": "[4]; [9]", "result": "reduced"}, {"measurement": "heart remodeling (organ weight)", "setting": "[4]; week three", "result": "trend towards lesser"}, {"measurement": "kidney remodeling (organ weight)", "setting": "[4]; week three", "result": "trend towards lesser"}, {"measurement": "heart calcification", "setting": "[4]; [10]", "result": "trend towards reduced"}, {"measurement": "kidney calcification", "setting": "[4]; [10]", "result": "trend towards reduced"}, {"measurement": "urinary sodium excretion", "setting": "Sprague Dawley (SD) rats; single agent, compared to vehicle control", "result": "significantly decreased"}, {"measurement": "24-hr urinary phosphorous excretion", "setting": "Sprague Dawley (SD) rats; single agent, compared to vehicle control, final four days of treatment", "result": "significantly decreased"}, {"measurement": "% Reduction Urinary Phosphorous Excretion When Dosed Alone", "setting": "Sprague Dawley (SD) rats; [11]", "result": 33.2, "unit": "%"}, {"measurement": "% Reduction Urinary Sodium Excretion When Dosed Alone", "setting": "Sprague Dawley (SD) rats; [11]", "result": 82.1, "unit": "%"}, {"measurement": "urinary sodium excretion", "setting": "Sprague Dawley (SD) rats; tenapanor co-administered with all doses of sevelamer, compared to control", "result": "significantly reduced"}, {"measurement": "albuminuria", "setting": "[5]", "result": "improved"}, {"measurement": "blood pressure", "setting": "[5]", "result": "improved"}, {"measurement": "fluid overload", "setting": "[5]", "result": "improved"}, {"measurement": "heart hypertrophy", "setting": "[5]", "result": "improved"}, {"measurement": "kidney hypertrophy", "setting": "[5]", "result": "improved"}, {"measurement": "phosphorus urinary excretion", "setting": "[5]", "result": "significantly reduced"}]}]}
